Data from the NIST ThermoML archive (doi:10.1021/je2002368).
± gives the expanded uncertainty stated by the source.

What was measured:
[1] = refractive index (Na D-line) (dimensionless); conditions: 101.33 kPa, Liquid, Standard Abbe refractometry
[2] = 101.33 kPa, Liquid; for viscosity: Concentric cylinders viscometry; for mass density: Vibrating tube method

CCn1cc[n+](C)c1.NCC(=O)[O-] [1-ethyl-3-methylimidazolium ammonioacetate]
Conditions	mass density, [2] [kg/m3]	refractive index, [1]	viscosity, [2] [mPa·s]
293.15 K	1158 ± 2.6	1.50628 ± 0.00068	80.37 ± 1.4
298.15 K	1154.7 ± 2.6	1.50473 ± 0.00068	61.51 ± 1.1
303.15 K	1151.6 ± 2.5	1.50313 ± 0.00068	47.75 ± 0.82
308.15 K	1148.5 ± 2.5	1.50154 ± 0.00068	37.79 ± 0.65
313.15 K	1145.3 ± 2.5	1.49988 ± 0.00068	30.31 ± 0.52
318.15 K	1142.2 ± 2.5	1.49827 ± 0.00068	24.89 ± 0.43
323.15 K	1139 ± 2.5	1.49657 ± 0.00068	20.64 ± 0.36
328.15 K	1135.8 ± 2.5	1.49488 ± 0.00068	17.33 ± 0.3
333.15 K	1132.7 ± 2.5	1.49321 ± 0.00068	14.72 ± 0.25
338.15 K	1129.5 ± 2.4	–	12.64 ± 0.22
343.15 K	1126.3 ± 2.4	–	10.94 ± 0.19
348.15 K	1123.2 ± 2.4	–	9.55 ± 0.17
353.15 K	1120.1 ± 2.4	–	8.38 ± 0.15

CCn1cc[n+](C)c1.O=C([O-])[C@@H]1CCCN1 [1-ethyl-3-methyl-1H-imidazolium L-prolinate]
Conditions	mass density, [2] [kg/m3]	refractive index, [1]	viscosity, [2] [mPa·s]
293.15 K	1158.14 ± 2.6	1.51523 ± 0.00068	626.95 ± 23
298.15 K	1155.08 ± 2.6	1.51372 ± 0.00068	426.12 ± 14
303.15 K	1152 ± 2.5	1.51229 ± 0.00068	295.17 ± 8.4
308.15 K	1148.9 ± 2.5	1.51073 ± 0.00068	210.2 ± 5.2
313.15 K	1145.78 ± 2.5	1.50924 ± 0.00068	153.57 ± 3.4
318.15 K	1142.64 ± 2.5	1.50774 ± 0.00068	114.27 ± 2.3
323.15 K	1139.5 ± 2.5	1.50621 ± 0.00068	87.05 ± 1.6
328.15 K	1136.36 ± 2.5	1.50454 ± 0.00068	67.61 ± 1.2
333.15 K	1133.22 ± 2.5	1.5031 ± 0.00068	54.04 ± 0.92
338.15 K	1130.08 ± 2.4	–	43.43 ± 0.75
343.15 K	1126.93 ± 2.4	–	35.47 ± 0.61
348.15 K	1123.79 ± 2.4	–	29.36 ± 0.51
353.15 K	1120.63 ± 2.4	–	24.5 ± 0.42

CC[n+]1ccn(C)c1.N[C@@H](CO)C(=O)[O-] [3-ethyl-1-methyl-1H-imidazolium L-serinate]
Conditions	mass density, [2] [kg/m3]	refractive index, [1]	viscosity, [2] [mPa·s]
293.15 K	1198.3 ± 2.8	1.51205 ± 0.00068	611.87 ± 23
298.15 K	1195.2 ± 2.8	1.51069 ± 0.00068	410.86 ± 13
303.15 K	1191.9 ± 2.7	1.50932 ± 0.00068	279.82 ± 7.8
308.15 K	1188.6 ± 2.7	1.50791 ± 0.00068	196.7 ± 4.7
313.15 K	1185.2 ± 2.7	1.50654 ± 0.00068	142.28 ± 3.1
318.15 K	1182 ± 3	1.50511 ± 0.00068	105.8 ± 2.1
323.15 K	1178.9 ± 2.7	1.50372 ± 0.00068	80.49 ± 1.4
328.15 K	1175.8 ± 2.7	1.50224 ± 0.00068	62.48 ± 1.1
333.15 K	1172.6 ± 2.6	1.50083 ± 0.00068	49.31 ± 0.85
338.15 K	1169.5 ± 2.6	–	39.63 ± 0.68
343.15 K	1166.3 ± 2.6	–	32.36 ± 0.56
348.15 K	1162.9 ± 2.6	–	26.82 ± 0.46
353.15 K	1159.8 ± 2.6	–	22.47 ± 0.39

CCn1cc[n+](C)c1.C[C@H](N)C(=O)[O-] [1-ethyl-3-methylimidazolium L-alaninate]
Conditions	mass density, [2] [kg/m3]	refractive index, [1]	viscosity, [2] [mPa·s]
293.15 K	1139.2 ± 2.5	1.50586 ± 0.00068	235.36 ± 6.1
298.15 K	1136.1 ± 2.5	1.5041 ± 0.00068	171.19 ± 3.9
303.15 K	1133 ± 2.5	1.50246 ± 0.00068	126.6 ± 2.6
308.15 K	1129.8 ± 2.4	1.50072 ± 0.00068	93.87 ± 1.8
313.15 K	1126.6 ± 2.4	1.49908 ± 0.00068	72.02 ± 1.3
318.15 K	1123.5 ± 2.4	1.49735 ± 0.00068	56.62 ± 0.97
323.15 K	1120.3 ± 2.4	1.49568 ± 0.00068	45.13 ± 0.78
328.15 K	1117.2 ± 2.4	1.49395 ± 0.00068	36.56 ± 0.63
333.15 K	1114 ± 2.4	1.49228 ± 0.00068	30.1 ± 0.52
338.15 K	1110.9 ± 2.4	–	25.02 ± 0.43
343.15 K	1107.8 ± 2.3	–	21.21 ± 0.37
348.15 K	1104.7 ± 2.3	–	18.05 ± 0.31
353.15 K	1101.6 ± 2.3	–	15.51 ± 0.27
